For data set [1] the following is noted: cited from earlier work.
Data set [2] concerns the target T1, P-glycoprotein (P-gp) (Homo sapiens, UniProt P08183). Description: biochemical.
Data set [3] deals with T1, P-glycoprotein (P-gp). The note with it: placental IOV; concentration range tested 100 to 1000 μM; 40 nM [3H]-paclitaxel.

The structures appear in SMILES notation. Structures can show the parent of a compound that is named as a salt.

T1 sequence (P08183 whole entry): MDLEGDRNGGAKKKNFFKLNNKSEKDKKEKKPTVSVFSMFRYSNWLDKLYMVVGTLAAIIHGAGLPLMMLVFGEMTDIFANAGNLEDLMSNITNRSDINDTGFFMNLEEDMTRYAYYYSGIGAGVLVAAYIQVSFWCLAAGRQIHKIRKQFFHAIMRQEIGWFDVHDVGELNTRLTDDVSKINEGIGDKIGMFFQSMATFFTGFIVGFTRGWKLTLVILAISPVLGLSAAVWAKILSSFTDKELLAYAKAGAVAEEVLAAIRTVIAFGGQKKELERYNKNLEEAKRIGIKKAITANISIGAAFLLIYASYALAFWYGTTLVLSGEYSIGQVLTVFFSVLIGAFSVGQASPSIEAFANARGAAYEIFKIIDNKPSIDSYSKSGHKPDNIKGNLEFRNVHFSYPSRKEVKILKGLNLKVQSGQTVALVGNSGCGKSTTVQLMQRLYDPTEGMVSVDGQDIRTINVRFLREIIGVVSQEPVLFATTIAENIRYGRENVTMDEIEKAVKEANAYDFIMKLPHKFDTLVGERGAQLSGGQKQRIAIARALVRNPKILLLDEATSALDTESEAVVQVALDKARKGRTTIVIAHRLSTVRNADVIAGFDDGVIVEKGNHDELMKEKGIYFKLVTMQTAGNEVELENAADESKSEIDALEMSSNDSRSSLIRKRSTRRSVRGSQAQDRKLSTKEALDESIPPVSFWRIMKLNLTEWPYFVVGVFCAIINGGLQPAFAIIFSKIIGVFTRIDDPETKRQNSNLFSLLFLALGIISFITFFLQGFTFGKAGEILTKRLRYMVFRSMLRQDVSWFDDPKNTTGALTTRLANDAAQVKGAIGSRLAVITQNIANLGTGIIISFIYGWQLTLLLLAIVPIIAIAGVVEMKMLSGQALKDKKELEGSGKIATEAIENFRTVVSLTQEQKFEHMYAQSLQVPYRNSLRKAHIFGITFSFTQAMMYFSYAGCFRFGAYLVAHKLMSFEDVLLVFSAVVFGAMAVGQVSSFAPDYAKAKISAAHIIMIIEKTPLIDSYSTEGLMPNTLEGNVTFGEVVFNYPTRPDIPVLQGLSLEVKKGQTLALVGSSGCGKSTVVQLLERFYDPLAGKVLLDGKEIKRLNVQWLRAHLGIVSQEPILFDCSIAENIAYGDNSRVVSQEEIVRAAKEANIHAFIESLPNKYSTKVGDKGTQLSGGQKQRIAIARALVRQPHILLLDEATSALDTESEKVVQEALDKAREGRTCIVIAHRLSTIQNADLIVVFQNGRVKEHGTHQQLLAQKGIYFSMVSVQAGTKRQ

For orientation: IC50 means the concentration needed to halve the response being measured. Read a low IC50 as inhibition by little substance. `CCCCCCCCCCNCCN[C@@]1(C)C[C@H](O[C@H]2[C@H](Oc3c4cc5cc3Oc3ccc(cc3Cl)[C@@H](O)[C@@H](NC(=O)[C@@H](CC(C)C)NC)C(=O)N[C@@H](CC(N)=O)C(=O)N[C@H]5C(=O)N[C@H]3C(=O)N[C@H](C(=O)N[C@H](C(=O)O)c5cc(O)c(CNCP(=O)(O)O)c(O)c5-c5cc3ccc5O)[C@H](O)c3ccc(c(Cl)c3)O4)O[C@H](CO)[C@@H](O)[C@@H]2O)O[C@@H](C)[C@H]1O` [telavancin, Telavancin]: the binding to proteins in data set [1] was 93%. Moreover, at P-glycoprotein (P-gp) [2], half-maximal inhibition (IC50) was put at 50 µM.

For `CN[C@H](CC(C)C)C(=O)N[C@H]1C(=O)N[C@@H](CC(N)=O)C(=O)N[C@H]2C(=O)N[C@H]3C(=O)N[C@H](C(=O)N[C@H](C(=O)O)c4cc(O)cc(O)c4-c4cc3ccc4O)[C@H](O)c3ccc(c(Cl)c3)Oc3cc2cc(c3O[C@@H]2O[C@H](CO)[C@@H](O)[C@H](O)[C@H]2O[C@H]2C[C@](C)(N)[C@H](O)[C@H](C)O2)Oc2ccc(cc2Cl)[C@H]1O` [vancomycin, vancomycin hydrochloride], at P-glycoprotein (P-gp) [3], the “effect on the ATP-dependent uptake of [3H]-paclitaxel by IOV” value is “did not affect”. In addition, the binding to proteins in data set [1] is recorded as 50%.
